Test results published in patent US20080318891A1, “Antisense oligonucleotides against thymidylate synthase” (priority 1998, published 2008).
“Also recorded” adds a separate entry of the source.

Columns and labels:
HeLa cells [1] = experiment: HeLa cell proliferation after transfection with 50 nM ODN; type: cell-based, human; settings: versus scrambled control ODN 32
Experimental: HeLa cells transfected with 50 nM antisense TS ODN 83 (•) or 50 nM scrambled control ODN 32 (∘) were assessed for cell proliferation at 1, 2, 5, and 6 days following transfection. Data points indicate the average of two measurements, and are representative of qualitatively similar results obtained in 16 independent experiments.
HeLa cells were transfected with 50 nM antisense TS ODN 83 or 50 nM scrambled control ODN 32 as described in the legend to FIG. 1. Values derived from cells transfected with ODN 32 were normalized to 100%, and each bar indicates the percent of that value measured following treatment with ODN 83 (mean±SE of 4 independent experiments). Asterisks (*) indicate significant differences (p<0.02, Student t-test).
Cell Culture: Human cervical carcinoma HeLa cells were maintained in D-MEM plus 10% foetal bovine serum and penicillin (50 units/ml)/streptomycin (50 μg/ml). Cultures were incubated in a humidified atmosphere of 5% CO2 at 37° C. Rapidly proliferating cells were utilised for establishing cultures of experimental cells, which were allowed to plate overnight prior to manipulation.

TS protein = experiment: TS binding assay ([6-3H]5-FdUMP binding) in HeLa cell lysates; type: cell-based, human; settings: HeLa cells, different times following transfection
Experimental: 5-FdUMP binding was measured in cells transfected with ODN 83 (hatched bars) or ODN 32 (open bars) at different times following transfection. (A) Results are plotted as a percent of 5-FdUMP binding in cells transfected with control ODN 32±SE (n=5). The values for ODN 32 (n=5) were normalized to 100% and are shown without error bars. […] Error bars indicate errors calculated according to a Student t-test, and indicate error due to differences in experimental conditions in 5 measurements taken on different days, and differences due to transfection with different ODNs. The asterisks indicate significant differences (p<0.02) determined by using a paired Student t-test.
TS binding assay: Cellular content of TS was assayed by binding of [6-^3H]5-FdUMP. […] The assay was performed using cells that were treated with antisense ODN 83 or the scrambled control ODN 32. Briefly, cells were harvested by scraping into PBS and resuspending the subsequent pellet in 100 mM KH2PO4 (pH 7.4). […] The total protein concentration was determined using Coomassie staining (BioRad reagent) (MI) in order to express results as pmol 5-FdUMP bound per mg total protein. 5-FdUMP binding was assessed in paired lysates from cells transfected with ODN 83 or ODN 32, in separate incubation reactions carried out on different days; however, pairs were always assessed together under the same reaction conditions. […]

OV-90 cells [2] = experiment: Tumour cell proliferation, Example 3; type: cell-based, human; settings: FIG. 14; ODN 10, 25, 50 or 100 nM, four days
HT-29 cells = experiment: HT-29 proliferation, ODN combined with TS-targeting chemotherapeutics; type: cell-based, human; settings: 50 nM ODN plus raltitrexed (RTX) or 5-FudR, 4 days, compared to control SEQ ID NO:7 and chemotherapeutic
Experimental: HT-29 cells were plated in T25 flasks, treated with SEQ ID NO: 1 or SEQ ID NO:7 (50 nM) and various concentrations of raltitrexed (RTX) or 5-fluorouracil deoxyribonucleotide (5-FudR). Cell proliferation was measured by counting cells after 4 days.

MCF-7 = experiment: Tumour cell proliferation, Example 7; type: cell-based, human; settings: FIG. 19; three days of culture
Experimental: (§1) To measure the effects of ODNs on tumour cell proliferation, MSTO-211H, NCI-H28, NCI-H2052, MCF-7, and OV-90 cells were plated at a density of 1×10^5 per 25-cm^2 flask. After 24 or 48 hours, ODNs were mixed with Lipofectamine 2000 (LFA, Invitrogen) for 15 minutes in serum-free medium. Final concentrations of LFA ranged from 0.1 to 0.5 μg/ml to maintain a constant ODN:lipid ratio. The cell culture medium was replaced with 2 ml of the ODN:lipid mixture, and cells incubated for 4 hours, after which an additional 2 ml of medium with FBS was added. Cells in 3 flasks were counted using an electronic particle counter (Beckman Coulter, Hialeah, Fla.) at the time of treatment and after three days of culture. Cell proliferation in the presence of TS antisense SEQ ID NO: 1 or control ODN (SEQ ID NO:7) is shown relative to proliferation in the presence of LFA alone.

MSTO-211H = experiment: Tumour cell proliferation, Example 7; type: cell-based, human; settings: FIG. 19; three days of culture
Experimental: as §1

NCI-H2052 = experiment: Tumour cell proliferation, Example 7; type: cell-based, human; settings: FIG. 19; three days of culture
Experimental: as §1

NCI-H28 = experiment: Tumour cell proliferation, Example 7; type: cell-based, human; settings: FIG. 19; three days of culture
Experimental: as §1

OV-90 cells [3] = experiment: Tumour cell proliferation, Example 7; type: cell-based, human; settings: FIG. 19; three days of culture
Experimental: as §1

HeLa cells [4] = tested on: HeLa cells
Experimental: HeLa cells were transfected wraith ODN 83 (•) or control ODN 32 (∘) and treated with different concentrations of 5-FU (A), 5-FUdR (B), Tomudex (C), MTX (D), cisplatin (E) or chlorambucil (F) for 4 days, beginning 24 h after transfection. Data points are plotted as the mean±SE of 4 measurements. Where error bars are not apparent, they are obscured by the symbol. Asterisks (*) indicate significant differences <0.02, Student t-test).
Transfection was performed using lipofectamine (LFA, GIBCO-BRL), a polycationic liposome formulation. Cells to be used for proliferation experiments were plated at a starting cell number of between 0.6 and 1×10^5 cells per 25-cm tissue culture flask, and LFA was used at 3 μg/ml. For cells in 75-cm flasks, which were to be harvested and extracted for assay of mRNA or TS content, the starting cell number was approximately 8−10×10^5, and the LFA concentration was 4 μg/ml. Prior to transfection, adherent HeLa cells were washed once with PBS and then treated with antisense or scrambled control ODN (50 nM) in the appropriate concentration of LFA in serum-free D-MEM, at 37° C. for 6.0 h. The cells were then washed once with PBS and cultured in the presence of D-MEM plus 10% FBS. In cells treated with cytotoxic agents, exposure was initiated 24 hours after the removal of LFA/ODN, by addition of 0.2-volume of growth medium containing the agent at 6 times the final concentration. At the time of addition of drug, and after 4 days of incubation, cell numbers were determined from replicate flasks by enumerating with a particle counter (Coulter Electronics, Hialeah, Fla., USA). The proliferation of drug treated cells (fold-increase in cell number) was calculated as a percentage of that of the control cells. IC50 and IC90 values were determined by interpolation of plotted data.

[5] = tested on: HT-29 colon carcinoma cells
[6] = tested on: MCF-7 breast carcinoma cells
[7] = tested on: three mesothelioma cell lines
Experimental: Tumour cells were first treated with pemetrexed (Alimta®), 5-FUdR, or gemcitabine alone at various concentrations to determine the IC50 in a proliferation assay, using cell counting on day 0 and day 3.
Mesothelioma and OV-90 cells were pretreated with TS antisense ODN SEQ ID NO:1 plus control ODN SEQ ID NO:7 (5 nM each) or control ODN SEQ ID NO:7 (10 nM) with 0.1 μg/ml LFA for 4 hours as described in Example 7. […] After the 4-hour incubation, 2 ml of medium with various concentrations of Alimta®, 5-FUdR or gemcitabine was added to achieve the final drug concentrations indicated. Cells were counted at the time of drug treatment and 3 days later, as described in Example 7.

[8] = drug 4 days, beginning 24 h after transfection

Q: Which results are given for “ODN 83: phosphorothioated 20-mer 5′-GCCAGTGGCAACATCCTTAA-3′, 2′-methoxyethoxy on 6 end nucleotides, complementary to TS mRNA 3′ untranslated region (all phosphorothioate, sugars by position and methylation of C not given here; 2'-methoxyethoxy on six end nucleotides)”?
A: HeLa cell proliferation (HeLa cells [1]): inhibits; also recorded: suppresses HeLa cell growth after transfection, followed by recovery to control proliferation rate after 48 hours; TS protein levels (inferred by 5-FdUMP binding) (TS protein): diminished; Cell proliferation relative to control ODN (OV-90 cells [2]): Inhibition of proliferation; Inhibition of HT-29 proliferation by combination with chemotherapeutic (HT-29 cells): increased inhibition; Cell proliferation relative to LFA alone (MCF-7): Inhibition of proliferation; Cell proliferation relative to LFA alone (MSTO-211H): exquisitely sensitive; Cell proliferation relative to LFA alone (NCI-H2052): exquisitely sensitive; Cell proliferation relative to LFA alone (NCI-H28): exquisitely sensitive; Cell proliferation relative to LFA alone (OV-90 cells [3]): Inhibition of proliferation; Sensitization of HeLa cells to toxic effects of 5-FU (HeLa cells [4]): sensitizes; Sensitization of HeLa cells to toxic effects of 5-FUdR (HeLa cells [4]; [8]): sensitizes; Sensitization of HeLa cells to toxic effects of MTX (HeLa cells [4]; [8]): sensitizes; Sensitization of HeLa cells to toxic effects of Tomudex (HeLa cells [4]; [8]): sensitizes; Sensitization of HeLa cells to toxic effects of chlorambucil (HeLa cells [4]; [8]): not; Sensitization of HeLa cells to toxic effects of cisplatin (HeLa cells [4]; [8]): not; HT-29 cells labelled (in situ hybridization) [5]: 46%; Uptake of antisense ODN into MCF-7 cells [6]: comparable to HeLa cells; Effect on Alimta IC50 / cytotoxicity [7]: potentiates; Effect on cytotoxicity of gemcitabine [7]: relatively unaffected; Potentiation of the cytotoxicity of 5-FUdR [7]: potentiates
